Test results from publication PMC5486975 (European journal of medicinal chemistry, 2017).

Legend:
[1] = tested on: PC-3 human androgen-insensitive prostate cancer cell line; assay: WST-1 cell proliferation assay, PC-3; type: cell-based
PC-3 cells = conditions: cited from earlier work
[2] = tested on: LNCaP human androgen-sensitive prostate cancer cell line; assay: WST-1 cell proliferation assay, LNCaP; type: cell-based
[3] = tested on: DU145 human androgen-insensitive prostate cancer cell line; assay: WST-1 cell proliferation assay, DU145; type: cell-based
[4] = tested on: PWR-1E non-neoplastic human prostate epithelial cells; assay: WST-1 cell proliferation assay, PWR-1E; type: cell-based
[5] = fold potency relative to curcumin

COc1cc(/C=C/C(=O)CC(=O)/C=C/c2ccc(O)c(OC)c2)ccc1O [Curcumin]
IC50 ([1]; Homo sapiens, 72 h, read-out: IC50 (μM) PC-3): 25.4 ± 2.15 µM | IC50(curcumin)/IC50(trienone) PC-3 [1, 5]: 1 | effect on PC-3 cell cycle progression (PC-3 cells): arresting the G1/S phase | IC50 ([2]; Homo sapiens, LNCaP, 72 h, read-out: IC50 (μM) LNCaP): 13.6 ± 2.69 µM | IC50(curcumin)/IC50(trienone) LNCaP [2, 5]: 1 | IC50 ([3]; Homo sapiens, DU-145, 72 h, read-out: IC50 (μM) DU145): 26.2 ± 0.65 µM | IC50(curcumin)/IC50(trienone) DU145 [3, 5]: 1 | IC50 ([4]; Homo sapiens, PWR-1E, 72 h, read-out: IC50 (μM) PWR-1E): 8.14 to 9.54 µM | IC50(curcumin)/IC50(trienone) PWR-1E [4, 5]: 1
